From PMC12481576, “Barbituric Acid Derivatives as Covalent Inhibitors of Leishmania braziliensis Dihydroorotate Dehydrogenase” (Journal of Medicinal Chemistry, 2025)
“And” between values parts separate entries of the source, which are not always exact repeats. Equal entries are not always repeated. Where two headings read alike, the source gives them in different places.

What was measured:
[1] = for Raw data: analyte peak area, T=0: 0 min; for Raw data: analyte peak area, T=0 / Raw data: analyte peak area, T=5 / Raw data: analyte peak area, T=10 / Raw data: analyte peak area, T=20 / Raw data: analyte peak area, T=30 / Raw data: analyte peak area, T=60: raw LC-MS area; for Raw data: analyte peak area, T=5: 5 min; for Raw data: analyte peak area, T=10: 10 min; for Raw data: analyte peak area, T=20: 20 min; for Raw data: analyte peak area, T=30: 30 min; for Raw data: analyte peak area, T=60: 60 min
in vitro [2] = settings: liver microsomes; for microsomal CLint at 1 μM / remaining at 5 min, 1 μM: male, CD1, mouse; for remaining at 5 min, 1 μM / remaining at 10 min, 1 µM / remaining at 20 min, 1 µM / remaining at 0.5 h, 1 µM / remaining at 1 h, 1 µM: pH 7.4, % Remaining; for remaining at 5 min, 1 μM: T=5 min; for remaining at 10 min, 1 µM / remaining at 20 min, 1 µM / remaining at 0.5 h, 1 µM / remaining at 1 h, 1 µM: mouse; for remaining at 10 min, 1 µM: T=10 min; for remaining at 20 min, 1 µM: T=20 min; for remaining at 0.5 h, 1 µM: T=30 min, 30 min; for remaining at 1 h, 1 µM: T=60 min, 60 min
in vitro [3] = settings: mouse, microsomes, pH 7.4, % Remaining, T=60 NCF
[4] = Mouse liver microsome stability in the absence of cofactors (NCF); settings: mouse liver microsomes, 60 min, no cofactor (NCF), raw LC-MS area
[5] = mouse liver microsomes, replicate 1 (left block)
[6] = mouse liver microsomes, replicate 2 (right block)
[7] = n=1, mouse liver microsomes, 1 µM, n=1
[8] = n=2, mouse liver microsomes, 1 µM, n=2

In the case of `O=C(O)Cc1ccccc1Nc1c(Cl)cccc1Cl` [Diclofenac], the “Calculated T-half (min), Average” value ([1]; mouse liver microsomes (CD1 male), 0.4 mg/ml protein, test conc 1 µM, average of n=1 and n=2) is reported as 59.3 min, the “Calculated T-half (min), n=1” value ([1]; mouse liver microsomes (CD1 male), 0.4 mg/ml protein, test conc 1 µM, replicate n=1) is reported as 62.0 min and 61.99 min and the “Calculated T-half (min), n=2” value ([1]; mouse liver microsomes (CD1 male), 0.4 mg/ml protein, test conc 1 µM, replicate n=2) is reported as 56.6 min and 56.57 min. For the same molecule, the “Raw data: analyte peak area, T=0” value [1, 5] was 17523, the “Raw data: analyte peak area, T=0” value [1, 6] was 19401 and the “Calculated CLint, app (µl/min/mg), n=1” value ([1]; mouse liver microsomes, 0.4 mg/ml protein, 1 µM, replicate n=1) was 27.95 µL/min/mg. For the same molecule, the “Calculated CLint, app (µl/min/mg), n=2” value ([1]; mouse liver microsomes, 0.4 mg/ml protein, 1 µM, replicate n=2) was 30.63 µL/min/mg, the “Modified T-half (min), Average” value ([1]; mouse liver microsomes, 0.4 mg/ml, 1 µM, average, limited to T Half range 3.00 - […]) was 59.3 min and the “Raw data: analyte peak area, T=5” value [1, 5] was 17080. The “Raw data: analyte peak area, T=5” value [1, 6] was 16757, the “Raw data: analyte peak area, T=10” value [1, 5] was 15901 and the “Raw data: analyte peak area, T=10” value [1, 6] was 17016. The “Raw data: analyte peak area, T=20” value [1, 5] was 13027, the “Raw data: analyte peak area, T=20” value [1, 6] was 13336 and the “Raw data: analyte peak area, T=30” value [1, 5] was 11583. For the same molecule, the “Raw data: analyte peak area, T=30” value [1, 6] was 11936, the “Raw data: analyte peak area, T=60” value [1, 5] was 10413 and the “Raw data: analyte peak area, T=60” value [1, 6] was 8808. It also gave a microsomal CLint at 1 μM (in vitro [2]; pH 7.4) of 27.9 µL/min/mg, a remaining at 5 min, 1 μM (in vitro [2]; [7]) of 94% and a remaining at 5 min, 1 μM (in vitro [2]; [8]) of 89.2%. The microsomal CLint at 1 μM (in vitro [2]; pH 7.4, Calculated CLint, app (µl/min/mg), Average, mouse liver microsomes, 0.4 mg/ml protein, 1 µM) was 29.3 µL/min/mg, the microsomal CLint at 1 μM (in vitro [2]; pH 7.4, Calculated CLint, app (µl/min/mg), n=1, mouse liver microsomes, 0.4 mg/ml protein, 1 µM, replicate n=1) was 27.9 µL/min/mg and the microsomal CLint at 1 μM (in vitro [2]; pH 7.4, Calculated CLint, app (µl/min/mg), n=2, mouse liver microsomes, 0.4 mg/ml protein, 1 µM, replicate n=2) was 30.6 µL/min/mg. It also gave a remaining at 10 min, 1 µM (in vitro [2]; [7]) of 86.6%, a remaining at 10 min, 1 µM (in vitro [2]; [8]) of 87% and a remaining at 20 min, 1 µM (in vitro [2]; [7]) of 79.5%. It also gave a remaining at 20 min, 1 µM (in vitro [2]; [8]) of 79%, a remaining at 0.5 h, 1 µM (in vitro [2]; [7]) of 62% and a remaining at 0.5 h, 1 µM (in vitro [2]; [8]) of 63%. It also gave a remaining at 1 h, 1 µM (in vitro [2]; [7]) of 52.3%, a remaining at 1 h, 1 µM (in vitro [2]; [8]) of 47.8% and a remaining at 1 h, 1 µM (in vitro [3]; n=1) of 98.3%. For the same molecule, the remaining at 1 h, 1 µM (in vitro [3]; n=2) was 88.5%, the “Raw data: analyte peak area, T=60 NCF” value ([4]; replicate 1 (left block)) was 17862 and the “Raw data: analyte peak area, T=60 NCF” value ([4]; replicate 2 (right block)) was 19654.
